Experimental findings from ChEMBL document CHEMBL1124001, “Synthesis and antileukemic activity of bis[[(carbamoyl)oxy]methyl]- substituted pyrrolo[2,1-a]isoquinolines, pyrrolo[1,2-a]quinolines, pyrrolo[2,1-a]isobenzazepines, and pyrrolo[1,2-a]benzazepines” (J Med Chem, 1988) are described below.

The subject of data set [1] is Mus musculus. The data set can be described thus: Toxicity day survivors was determined by the ratio of animals survived to that of test animals at 100 mg/kg intraperitoneally in CD2F1 mice; 3/6. It is filed as organism-based. The conditions noted are these: in vivo, ip. The arrangement: dose 100 mg/kg, route intraperitoneal.
Data set [2] relates to Mus musculus. The data set can be described thus: Net log cell kill was determined after injecting 3.16 mg/kg intraperitoneally in CD2F1 mice. It counts as functional. The note with it: route intraperitoneal.
The subject of data set [3] is Mus musculus. The data set can be described thus: Body weight change of test animals to that of control was determined after injection at 25 mg/kg intraperitoneally in CD2F1 mice. It counts as functional. The conditions noted are these: route intraperitoneal.
The test system of data set [4] is Mus musculus. The data set can be described thus: Ratio of treated to that of untreated tumor-bearing control animals at 12.5 mg/kg intraperitoneally in CD2F1 mice was determined. It is filed as functional. The conditions noted are these: route intraperitoneal.
Data set [5] has as its system Mus musculus. The data set can be described thus: Ratio of treated to that of untreated tumor-bearing control animals at 25 mg/kg intraperitoneally in CD2F1 mice was determined. It is filed as functional. The note with it: route intraperitoneal.
Data set [6] relates to Mus musculus. The data set can be described thus: Body weight change of test animals to that of control was determined after injection at 3.16 mg/kg intraperitoneally in CD2F1 mice. It counts as functional. The note with it: route intraperitoneal.
Data set [7] has as its system Mus musculus. The data set can be described thus: Body weight change of test animals to that of control was determined after injection at 100 mg/kg intraperitoneally in CD2F1 mice. It counts as functional. The note with it: route intraperitoneal.
For data set [8], the system named is Mus musculus. The data set can be described thus: Ratio of treated to that of untreated tumor-bearing control animals at 6.25 mg/kg intraperitoneally in CD2F1 mice was determined. It is filed as functional. The note with it: route intraperitoneal.
Data set [9] relates to Mus musculus. The data set can be described thus: Net log cell kill was determined after injecting 12.5 mg/kg intraperitoneally in CD2F1 mice. It is filed as functional. The conditions noted are these: route intraperitoneal.
The test system of data set [10] is Mus musculus. The data set can be described thus: Toxicity day survivors was determined by the ratio of animals survived to that of test animals at 50 mg/kg intraperitoneally in CD2F1 mice; 6/6. The conditions noted are these: in vivo, ip. It counts as organism-based. The arrangement: dose 50 mg/kg, route intraperitoneal.
The subject of data set [11] is Mus musculus. The data set can be described thus: Body weight change of test animals to that of control was determined after injection at 6.25 mg/kg intraperitoneally in CD2F1 mice. It is filed as functional. The note with it: route intraperitoneal.
Data set [12] concerns Mus musculus. The data set can be described thus: Body weight change of test animals to that of control was determined after injection at 50 mg/kg intraperitoneally in CD2F1 mice. It is filed as functional. The note with it: route intraperitoneal.
Data set [13] has as its system Mus musculus. The data set can be described thus: Toxicity day survivors was determined by the ratio of animals survived to that of test animals at 25 mg/kg intraperitoneally in CD2F1 mice; 6/6. More on the design: dose 25 mg/kg, route intraperitoneal. It is filed as organism-based. The conditions noted are these: in vivo, ip.
Data set [14] has as its system Mus musculus. The data set can be described thus: Toxicity day survivors was determined by the ratio of animals survived to that of test animals at 12.5 mg/kg intraperitoneally in CD2F1 mice; 6/6. It counts as organism-based. The arrangement: dose 12.5 mg/kg, route intraperitoneal. The conditions noted are these: in vivo, ip.
Data set [15] deals with Mus musculus. The data set can be described thus: Ratio of treated to that of untreated tumor-bearing control animals at 3.16 mg/kg intraperitoneally in CD2F1 mice was determined. It counts as functional. The conditions noted are these: route intraperitoneal.
Data set [16] deals with Mus musculus. The data set can be described thus: Net log cell kill was determined after injecting 25 mg/kg intraperitoneally in CD2F1 mice. It counts as functional. The conditions noted are these: route intraperitoneal.
Data set [17] relates to Mus musculus. The data set can be described thus: Net log cell kill was determined after injecting 6.25 mg/kg intraperitoneally in CD2F1 mice. It is filed as functional. The conditions noted are these: route intraperitoneal.
Data set [18] relates to Mus musculus. The data set can be described thus: Body weight change of test animals to that of control was determined after injection at 12.5 mg/kg intraperitoneally in CD2F1 mice. The conditions noted are these: route intraperitoneal. It counts as functional.
Data set [19] has as its system Mus musculus. The data set can be described thus: Toxicity day survivors was determined by the ratio of animals survived to that of test animals at 3.16 mg/kg intraperitoneally in CD2F1 mice; 6/6. The note with it: in vivo, ip. More on the design: dose 3.16 mg/kg, route intraperitoneal. It is filed as organism-based.
Data set [20] concerns Mus musculus. The data set can be described thus: Toxicity day survivors was determined by the ratio of animals survived to that of test animals at 6.25 mg/kg intraperitoneally in CD2F1 mice; 6/6. The note with it: in vivo, ip. More on the design: dose 6.25 mg/kg, route intraperitoneal. It counts as organism-based.
Data set [21] deals with Mus musculus. The data set can be described thus: Body weight change of test animals to that of control was determined after injection at 20 mg/kg intraperitoneally in CD2F1 mice. It is filed as functional. The note with it: route intraperitoneal.
Data set [22] concerns Mus musculus. The data set can be described thus: (§1) Body weight change of test animals to that of control was determined after injection at 2.5 mg/kg intraperitoneally in CD2F1 mice. The conditions noted are these: in vivo, ip. It counts as ADME, organism-based. The arrangement: dose 2.5 mg/kg, route intraperitoneal.
Data set [23] concerns Mus musculus. Described as §1. It is filed as functional. The note with it: route intraperitoneal.
For data set [24], the system named is Mus musculus. The data set can be described thus: Net log cell kill was determined after injecting 2.5 mg/kg intraperitoneally in CD2F1 mice. The conditions noted are these: route intraperitoneal. It is filed as functional.
Data set [25] concerns Mus musculus. The data set can be described thus: Body weight change of test animals to that of control was determined after injection at 10 mg/kg intraperitoneally in CD2F1 mice. It is filed as functional. The conditions noted are these: route intraperitoneal.
Data set [26] has as its system Mus musculus. The data set can be described thus: Net log cell kill was determined after injecting 5 mg/kg intraperitoneally in CD2F1 mice. It counts as functional. The conditions noted are these: route intraperitoneal.
The subject of data set [27] is Mus musculus. The data set can be described thus: Toxicity day survivors was determined by the ratio of animals survived to that of test animals at 20 mg/kg intraperitoneally in CD2F1 mice; 6/6. It is filed as organism-based. More on the design: dose 20 mg/kg, route intraperitoneal. The conditions noted are these: in vivo, ip.
Data set [28] has as its system Mus musculus. The data set can be described thus: Ratio of treated to that of untreated tumor-bearing control animals at 2.5 mg/kg intraperitoneally in CD2F1 mice was determined. It is filed as functional. The note with it: route intraperitoneal.
For data set [29], the system named is Mus musculus. The data set can be described thus: Toxicity day survivors was determined by the ratio of animals survived to that of test animals at 10 mg/kg intraperitoneally in CD2F1 mice; 6/6. The note with it: in vivo, ip. It is filed as organism-based. More on the design: dose 10 mg/kg, route intraperitoneal.
For data set [30], the system named is Mus musculus. The data set can be described thus: Net log cell kill was determined after injecting 10 mg/kg intraperitoneally in CD2F1 mice. It is filed as functional. The note with it: route intraperitoneal.
Data set [31] relates to Mus musculus. The data set can be described thus: Toxicity day survivors was determined by the ratio of animals survived to that of test animals at 5 mg/kg intraperitoneally in CD2F1 mice; 6/6. It is filed as organism-based. The arrangement: dose 5 mg/kg, route intraperitoneal. The note with it: in vivo, ip.
The test system of data set [32] is Mus musculus. The data set can be described thus: Toxicity day survivors was determined by the ratio of animals survived to that of test animals at 40 mg/kg intraperitoneally in CD2F1 mice; 0/6. It counts as organism-based. The arrangement: dose 40 mg/kg, route intraperitoneal. The note with it: in vivo, ip.
In data set [33] the test system is Mus musculus. The data set can be described thus: Ratio of treated to that of untreated tumor-bearing control animals at 5 mg/kg intraperitoneally in CD2F1 mice was determined. It is filed as functional. The conditions noted are these: route intraperitoneal.
Data set [34] concerns Mus musculus. The data set can be described thus: Toxicity day survivors was determined by the ratio of animals survived to that of test animals at 2.5 mg/kg intraperitoneally in CD2F1 mice; 6/6. It counts as organism-based. More on the design: dose 2.5 mg/kg, route intraperitoneal. The note with it: in vivo, ip.
Data set [35] deals with Mus musculus. The data set can be described thus: Body weight change of test animals to that of control was determined after injection at 5 mg/kg intraperitoneally in CD2F1 mice. It counts as functional. The conditions noted are these: route intraperitoneal.
The subject of data set [36] is Mus musculus. The data set can be described thus: Ratio of treated to that of untreated tumor-bearing control animals at 10 mg/kg intraperitoneally in CD2F1 mice was determined. The note with it: route intraperitoneal. It counts as functional.

Molecules are shown by their SMILES.

As for `COc1ccc2c(c1)CCn1c(C)c(COC(=O)NC(C)C)c(COC(=O)NC(C)C)c1-2`, the TDS amounted to 3 in [1]; 6 in [10]; 6 in data set [13]; 6 in data set [14]; 6 in data set [19]; 6 in data set [20]. Also, the KE in [2] is -1.43; in [9], -1.29; in data set [16] it was -1.29; in data set [17] it was -1.51. The T-C in data set [3] is listed as -5.6 g; in data set [6], -1.1 g; in data set [7], -5.3 g; in [11], -2.1 g; in data set [12] it was -6.6 g; in data set [18], -3 g. For the same compound, the T/C – broadly, the ratio of treated to control – came to 153% in data set [4], 153% in [5], 136% in data set [8] and 142% in [15].

For `CNC(=O)OCc1c(COC(=O)NC)c2n(c1C)-c1ccccc1CCC2`, the T-C is listed as -2.6 g in [21], -1.7 g in data set [23], -2.2 g in data set [25] and -0.9 g in data set [35]. Further, the TDS in data set [22] turned out to be 6; in data set [27], 6; in data set [29] it was 6; in [31], 6; in data set [32], 0; in data set [34] it was 6. Moreover, the KE came out at 1.19 in [24], 0.55 in [26] and 1 in data set [30]. For the same compound, the T/C in data set [28] was 154%; in data set [33], 147%; in [36] it was 152%.
